Results as given in US8309552B2, “Immunomodulating heterocyclic compounds” (Medigene AG, priority 2003, dated 2012).

Each compound was assayed against T1, CD80-CD28 interaction (Homo sapiens, UniProt P33681) (assay: Homogenous Time Resolved Fluorescence (HTRF) assay, cell free). Conditions: cell free HTRF assay; concentration series 100 μM-1.7 nM; 4 hours at room temperature; read-out: Activity (EC50 in the HTRF assay).
T1 sequence (P33681 35-242 limits assumed): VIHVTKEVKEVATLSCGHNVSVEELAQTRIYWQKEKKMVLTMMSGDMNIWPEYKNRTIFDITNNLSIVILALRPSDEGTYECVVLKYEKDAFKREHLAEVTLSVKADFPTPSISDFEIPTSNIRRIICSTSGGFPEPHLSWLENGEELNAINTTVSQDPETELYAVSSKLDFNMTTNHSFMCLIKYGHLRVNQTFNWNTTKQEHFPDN
Type: binding
Method in brief: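 Europium and APC labels were linked through antibodies to CD28 and CD80 fusion proteins. Compounds were tested at 100 μM-1.7 nM for 4 h at room temperature in 50 mM Tris-HCl, 150 mM NaCl pH7.8, 0.1% BSA. Emission read at 665 and 615 nm (excitation 340 nm); non-specific signal measured with C215 Fab in place of CD80; EC50 reported in bands.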

| SMILES | EC50 |
| --- | --- |
| O=C(NC1CCOC1=O)c1ccc(-n2[nH]c3c(nnc4ccccc43)c2=O)cc1 (centres unmarked) [Example 277] | 1000 to 10000 nM |
| CC(C)NCCCNC(=O)c1ccc(-n2[nH]c3c(nnc4c(F)cccc43)c2=O)cc1 [Example 348] | < 1000 nM |
| CCN(CC)CCCNC(=O)c1ccc(-n2[nH]c3c(nnc4cccc(F)c43)c2=O)cc1 [Example 392] | < 1000 nM |
| O=C(NCCc1ccccc1)c1ccc(-n2[nH]c3c(nnc4ccccc43)c2=O)cc1 [Example 270] | > 10000 nM |
| CCCCNCCNC(=O)c1ccc(-n2[nH]c3c(nnc4ccccc43)c2=O)cc1 [Example 279] | < 1000 nM |
| Cc1ccc2nnc3c(=O)n(-c4ccc(C(=O)NC5CC(C)(C)N(C)C(C)(C)C5)cc4)[nH]c3c2c1 [Example 408] | < 1000 nM |
| O=C(c1ccc(-n2[nH]c3c(nnc4cccc(F)c43)c2=O)cc1)N1CCC(N2CCCCC2)CC1 [Example 402] | 1000 to 10000 nM |
| O=C(c1ccc(-n2[nH]c3c(nnc4c(F)cccc43)c2=O)cc1)N1CCC(N2CCCCC2)CC1 [Example 421] | 1000 to 10000 nM |
| CN1C(C)(C)CC(NC(=O)c2ccc(-n3[nH]c4c(nnc5c(F)cccc54)c3=O)cc2)CC1(C)C [Example 234] | < 1000 nM |
| O=C(NCCCN1CCCC1)c1ccc(-n2[nH]c3c(nnc4c(F)cccc43)c2=O)cc1 [Example 352] | < 1000 nM |
| O=C(NCCCCN1CCCC1)c1ccc(-n2[nH]c3c(nnc4c(Cl)cccc43)c2=O)cc1 [Example 413] | < 1000 nM |
| O=C(NCCc1ccc(Cl)c(Cl)c1)c1ccc(-n2[nH]c3c(nnc4c(F)cccc43)c2=O)cc1 [Example 372] | 1000 to 10000 nM |
| COc1ccc(OCCNC(=O)Nc2ccc(-n3[nH]c4c(nnc5ccccc54)c3=O)cc2)cc1 [Example 225] | > 10000 nM |

Other lines, results leading:

| EC50 | SMILES |
| --- | --- |
| 1000 to 10000 nM | CCOC(CNC(=O)Nc1ccc(-n2[nH]c3c(nnc4ccccc43)c2=O)cc1)OCC [Example 307] |
| > 10000 nM | CC(NC(=O)Nc1ccc(-n2[nH]c3c(nnc4ccccc43)c2=O)cc1)C(C)(C)C (centres unmarked) [Example 262] |
| < 1000 nM | CCCC(C)NC(=O)c1ccc(-n2[nH]c3c(nnc4ccccc43)c2=O)cc1 (centres unmarked) [Example 321] |
| > 10000 nM | CC(CCc1ccccc1)NC(=O)Nc1ccc(-n2[nH]c3c(nnc4ccccc43)c2=O)cc1 (centres unmarked) [Example 304] |
| > 10000 nM | CCC(CC)CNC(=O)Nc1ccc(-n2[nH]c3c(nnc4ccccc43)c2=O)cc1 [Example 221] |

Same assay, conditions: cell-free HTRF, compound concentration series 100 μM-1.7 nM, 4 hours at room temperature; read-out: Activity (EC50 in the HTRF assay)

| SMILES | EC50 |
| --- | --- |
| O=C(NCCOc1ccccc1)c1ccc(-n2[nH]c3c(nnc4ccccc43)c2=O)cc1 [Example 63] | 1000 to 10000 nM |
| O=C(NCCCN1CCCC1)c1ccc(-n2[nH]c3c(nnc4ccccc43)c2=O)cc1 [Example 79] | < 1000 nM |
| CC1CCCCN1CCCNC(=O)c1ccc(-n2[nH]c3c(nnc4ccccc43)c2=O)cc1 (centres unmarked) [Example 32] | < 1000 nM |
| C=C(C)C(=O)OCCNC(=O)c1ccc(-n2[nH]c3c(nnc4ccccc43)c2=O)cc1 [Example 28] | 1000 to 10000 nM |
| CC(C)CCC(C)NC(=O)c1ccc(-n2[nH]c3c(nnc4ccccc43)c2=O)cc1 (centres unmarked) [Example 96] | 1000 to 10000 nM |
| CC(C)C(C)NC(=O)c1ccc(-n2[nH]c3c(nnc4ccccc43)c2=O)cc1 (centres unmarked) [Example 89] | < 1000 nM |
| CCOC(=O)C(C)NC(=O)c1ccc(-n2[nH]c3c(nnc4ccccc43)c2=O)cc1 (centres unmarked) [Example 66] | 1000 to 10000 nM |
| O=C(NCc1ccc(OC(F)(F)F)cc1)c1ccc(-n2[nH]c3c(nnc4ccccc43)c2=O)cc1 [Example 64] | 1000 to 10000 nM |
| CCCCCC(C)NC(=O)c1ccc(-n2[nH]c3c(nnc4ccccc43)c2=O)cc1 (centres unmarked) [Example 43] | 1000 to 10000 nM |
| O=C(NCCO)c1ccc(-n2[nH]c3c(nnc4ccccc43)c2=O)cc1 [Example 51] | < 1000 nM |
| O=C(Nc1ccc(-n2[nH]c3c(nnc4ccccc43)c2=O)cc1)NC1CCC(O)CC1 (centres unmarked) [Example 190] | 1000 to 10000 nM |
| O=C(NC1CCN(Cc2ccccc2)C1)c1ccc(-n2[nH]c3c(nnc4ccccc43)c2=O)cc1 (centres unmarked) [Example 94] | < 1000 nM |
| CC(CCc1ccccc1)NC(=O)c1ccc(-n2[nH]c3c(nnc4ccccc43)c2=O)cc1 (centres unmarked) [Example 105] | > 10000 nM |
| CCCCCCC(C)NC(=O)c1ccc(-n2[nH]c3c(nnc4ccccc43)c2=O)cc1 (centres unmarked) [Example 27] | > 10000 nM |
| COCC(C)NC(=O)c1ccc(-n2[nH]c3c(nnc4ccccc43)c2=O)cc1 (centres unmarked) [Example 119] | 1000 to 10000 nM |
| O=C(NCc1cccc([N+](=O)[O-])c1)c1ccc(-n2[nH]c3c(nnc4ccccc43)c2=O)cc1 [Example 39] | 1000 to 10000 nM |
| CCOC(CNC(=O)c1ccc(-n2[nH]c3c(nnc4ccccc43)c2=O)cc1)OCC [Example 45] | 1000 to 10000 nM |
| CC(C)(C)OC(=O)NCCCCCCNC(=O)Nc1ccc(-n2[nH]c3c(nnc4ccccc43)c2=O)cc1 [Example 163] | 1000 to 10000 nM |
| O=C(NCc1ccc([N+](=O)[O-])cc1)c1ccc(-n2[nH]c3c(nnc4ccccc43)c2=O)cc1 [Example 21] | 1000 to 10000 nM |

Further lines, results first:

| EC50 | SMILES |
| --- | --- |
| > 10000 nM | CCCC(C)NC(=O)Nc1ccc(-n2[nH]c3c(nnc4ccccc43)c2=O)cc1 (centres unmarked) [Example 203] |
| 1000 to 10000 nM | CCCCNC(=O)Nc1ccc(-n2[nH]c3c(nnc4ccccc43)c2=O)cc1 [Example 177] |
| 1000 to 10000 nM | CC(C)OCCCNC(=O)Nc1ccc(-n2[nH]c3c(nnc4ccccc43)c2=O)cc1 [Example 149] |
| < 1000 nM | CN(C)CC(C)(C)CNC(=O)Nc1ccc(-n2[nH]c3c(nnc4ccccc43)c2=O)cc1 [Example 185] |
| 1000 to 10000 nM | CSCCNC(=O)Nc1ccc(-n2[nH]c3c(nnc4ccccc43)c2=O)cc1 [Example 178] |
| > 10000 nM | O=CCCNC(=O)Nc1ccc(-n2[nH]c3c(nnc4ccccc43)c2=O)cc1 [Example 170] |
| < 1000 nM | CC(C)NCCNC(=O)Nc1ccc(-n2[nH]c3c(nnc4ccccc43)c2=O)cc1 [Example 141] |
| 1000 to 10000 nM | CSCCCNC(=O)Nc1ccc(-n2[nH]c3c(nnc4ccccc43)c2=O)cc1 [Example 161] |
| 1000 to 10000 nM | CCCCC(C)NC(=O)Nc1ccc(-n2[nH]c3c(nnc4ccccc43)c2=O)cc1 (centres unmarked) [Example 207] |
| 1000 to 10000 nM | CCOC(=O)CCC(NC(=O)Nc1ccc(-n2[nH]c3c(nnc4ccccc43)c2=O)cc1)C(=O)OCC (centres unmarked) [Example 189] |
| 1000 to 10000 nM | CCCNC(=O)c1ccc(-n2[nH]c3c(nnc4ccccc43)c2=O)cc1 [Example 84] |
| 1000 to 10000 nM | CCC(CC)NC(=O)Nc1ccc(-n2[nH]c3c(nnc4ccccc43)c2=O)cc1 [Example 187] |

Same assay, conditions: cell-free HTRF, concentration series 100 μM-1.7 nM, 4 hours at room temperature; read-out: Activity (EC50 in the HTRF assay)

| EC50 | SMILES |
| --- | --- |
| < 1000 nM | CC(C)C(C)(C#N)NC(=O)c1ccc(-n2[nH]c3c(nnc4c(F)cccc43)c2=O)cc1 (centres unmarked) [Example 498] |
| < 1000 nM | O=C(NC(CO)CO)c1ccc(-n2[nH]c3c(nnc4c(F)cccc43)c2=O)cc1 [Example 507] |
| 1000 to 10000 nM | O=C(N[C@H]1c2ccccc2C[C@H]1O)c1ccc(-n2[nH]c3c(nnc4c(F)cccc43)c2=O)cc1 [Example 510] |
| 1000 to 10000 nM | CN(CCCNC(=O)c1ccc(-n2[nH]c3c(nnc4c(F)cccc43)c2=O)cc1)c1ccccc1 [Example 438] |
| < 1000 nM | O=C(NC1CCN(CCC(F)=C(F)F)CC1)c1ccc(-n2[nH]c3c(nnc4c(F)cccc43)c2=O)cc1 [Example 484] |
| < 1000 nM | CC(O)CCNC(=O)c1ccc(-n2[nH]c3c(nnc4c(F)cccc43)c2=O)cc1 (centres unmarked) [Example 502] |

Same assay, conditions: inhibition of the CD80-CD28 interaction, 4 hours at room temperature; read-out: EC50 activity in the HTRF assay

| EC50 | SMILES |
| --- | --- |
| > 10000 nM | O=C(O)c1ccc(-n2[nH]c3c(nnc4ccccc43)c2=O)cc1 [Example 1, 4-(3-oxo-1,3-dihydro-2H-pyrazolo[4,3-c]cinnolin-2-yl)benzoic acid] |
